Columns and labels:
Format in all cases: in vivo
[1] = tested on: sedge, umbrella (small-flower umbrella sedge, Cyperus difformis); experiment: Test B flooded paddy test, visual plant response rating 0-100; details: 250 g ai/ha, Flood, applied to paddy water, evaluated after 13 days
Method in brief: (§1)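 Plants were grown to the 2-leaf stage, then pots were flooded to 3 cm above the soil and test compounds were applied directly into the paddy water. Water depth was held there throughout; after 13 days in a greenhouse, injury was scored visually against untreated controls.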

[2] = tested on: barnyardgrass (Echinochloa crusgalli); experiment: as above; details: 250 g ai/ha, Flood, applied to paddy water, evaluated after 13 days
Method in brief: as §1

[3] = tested on: ducksalad (Heteranthera limosa); experiment: as above; details: 250 g ai/ha, Flood, applied to paddy water, evaluated after 13 days
Method in brief: as §1

rice (Oryza sativa) = experiment: as above; details: 250 g ai/ha, Flood, applied to paddy water, evaluated after 13 days
Method in brief: as §1

[4] = tested on: blackgrass (Alopecurus myosuroides); experiment: Test A postemergence application, visual injury rating 0-100
Method in brief: (§2)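 Compounds formulated in a non-phytotoxic solvent with surfactant are sprayed onto soil of freshly planted loam-sand pots ahead of emergence, or onto emerged plants 2-10 cm tall. After a 10-day greenhouse period, each species is scored visually for injury against untreated controls.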

[5] = tested on: palmer (palmer amaranth, palmer pigweed, Amaranthus palmeri); experiment: as above
Method in brief: as §2

kochia (Bassia scoparia) [6] = experiment: as above
Method in brief: as §2

[7] = tested on: oat, wild (wild oat, Avena fatua); experiment: as above
Method in brief: as §2

[8] = tested on: barnyardgrass (Echinochloa crus-galli); experiment: as above
Method in brief: as §2

soybean (Glycine max) [9] = experiment: as above
Method in brief: as §2

[10] = tested on: green foxtail (Setaria viridis); experiment: as above
Method in brief: as §2

[11] = tested on: horseweed (Erigeron canadensis); experiment: as above
Method in brief: as §2

[12] = tested on: ragweed (common ragweed, Ambrosia artemisiifolia); experiment: as above
Method in brief: as §2

[13] = tested on: ryegrass, Italian (italian ryegrass, Lolium multiflorum); experiment: as above
Method in brief: as §2

[14] = tested on: galium (catchweed bedstraw, Galium aparine); experiment: as above
Method in brief: as §2

[15] = tested on: wheat (Triticum aestivum); experiment: as above
Method in brief: as §2

corn (Zea mays) [16] = experiment: as above
Method in brief: as §2

[17] = tested on: blackgrass (Alopecurus myosuroides); experiment: Test A preemergence soil spray, visual injury rating 0-100; details: 10 days
Method in brief: as §2

[18] = tested on: palmer (palmer amaranth, palmer pigweed, Amaranthus palmeri); experiment: as above; details: 10 days
Method in brief: as §2

kochia (Bassia scoparia) [19] = experiment: as above; details: 10 days
Method in brief: as §2

[20] = tested on: oat, wild (wild oat, Avena fatua); experiment: as above; details: 10 days
Method in brief: as §2

[21] = tested on: barnyardgrass (Echinochloa crus-galli); experiment: as above; details: 10 days
Method in brief: as §2

soybean (Glycine max) [22] = experiment: as above; details: 10 days
Method in brief: as §2

[23] = tested on: green foxtail (Setaria viridis); experiment: as above; details: 10 days
Method in brief: as §2

[24] = tested on: ragweed (common ragweed, Ambrosia artemisiifolia); experiment: as above; details: 10 days
Method in brief: as §2

[25] = tested on: ryegrass, Italian (italian ryegrass, Lolium multiflorum); experiment: as above; details: 10 days
Method in brief: as §2

[26] = tested on: wheat (Triticum aestivum); experiment: as above; details: 10 days
Method in brief: as §2

corn (Zea mays) [27] = experiment: as above; details: 10 days
Method in brief: as §2

[28] = 62 g ai/ha, postemergence, 10 days, 0 = no effect, 100 = complete control
[29] = Postemergence, 16 g ai/ha, greenhouse 10 days, 0 no effect, 100 complete control
[30] = 62 g ai/ha, 0 = no effect, 100 = complete control

SMILES: COC(=O)C1C=CC(NC(=O)C2(C)CN(c3cccc(OC(F)(F)F)c3)C(=O)O2)C1 (mixture of isomers) [Compound 101]
- Plant response rating, Sedge, Umbrella (0 to 100 scale, 0 is no effect and 100 is complete control) [1]: 0
- Plant response rating, Barnyardgrass (0 to 100 scale, 0 is no effect and 100 is complete control) [2]: 0
- Plant response rating, Ducksalad (0 to 100 scale, 0 is no effect and 100 is complete control) [3]: 0
- Plant response rating, Rice (0 to 100 scale, 0 is no effect and 100 is complete control) (rice (Oryza sativa)): 0
- Blackgrass plant response rating (0-100) [4, 28]: 90
- Blackgrass plant response rating (0 to 100 scale) [4, 29]: 80
- Pigweed, Palmer plant response rating (0-100) [5, 28]: 10
- Pigweed, Palmer plant response rating (0 to 100 scale) [5, 29]: 0
- Kochia plant response rating (0-100) (kochia (Bassia scoparia) [6]; [28]): 60
- Kochia plant response rating (0 to 100 scale) (kochia (Bassia scoparia) [6]; [29]): 10
- Oat, Wild plant response rating (0-100) [7, 28]: 90
- Oat, Wild plant response rating (0 to 100 scale) [7, 29]: 70
- Barnyardgrass plant response rating (0-100) [8, 28]: 90
- Barnyardgrass plant response rating (0 to 100 scale) [8, 29]: 60
- Soybean plant response rating (0-100) (soybean (Glycine max) [9]; [28]): 60
- Soybean plant response rating (0 to 100 scale) (soybean (Glycine max) [9]; [29]): 40
- Foxtail, Green plant response rating (0-100) [10, 28]: 50
- Foxtail, Green plant response rating (0 to 100 scale) [10, 29]: 10
- Horseweed plant response rating (0-100) [11, 28]: 10
- Horseweed plant response rating (0 to 100 scale) [11, 29]: 10
- Ragweed plant response rating (0-100) [12, 28]: 30
- Ragweed plant response rating (0 to 100 scale) [12, 29]: 0
- Ryegrass, Italian plant response rating (0-100) [13, 28]: 70
- Ryegrass, Italian plant response rating (0 to 100 scale) [13, 29]: 50
- Galium plant response rating (0-100) [14, 28]: 60
- Galium plant response rating (0 to 100 scale) [14, 29]: 50
- Wheat plant response rating (0-100) [15, 28]: 80
- Wheat plant response rating (0 to 100 scale) [15, 29]: 30
- Corn plant response rating (0-100) (corn (Zea mays) [16]; [28]): 90
- Corn plant response rating (0 to 100 scale) (corn (Zea mays) [16]; [29]): 50
- Blackgrass plant response rating ([17]; 16 g ai/ha, 0 to 100 scale): 0
- Blackgrass plant response rating (0-100) [17, 30]: 50
- Pigweed, Palmer plant response rating ([18]; 16 g ai/ha, 0 to 100 scale): 0
- Pigweed, Palmer plant response rating (0-100) [18, 30]: 0
- Kochia plant response rating (kochia (Bassia scoparia) [19]; 16 g ai/ha, 0 to 100 scale): 0
- Kochia plant response rating (0-100) (kochia (Bassia scoparia) [19]; [30]): 0
- Oat, Wild plant response rating ([20]; 16 g ai/ha, 0 to 100 scale): 0
- Oat, Wild plant response rating (0-100) [20, 30]: 80
- Barnyardgrass plant response rating ([21]; 16 g ai/ha, 0 to 100 scale): 0
- Barnyardgrass plant response rating (0-100) [21, 30]: 60
- Soybean plant response rating (soybean (Glycine max) [22]; 16 g ai/ha, 0 to 100 scale): 0
- Soybean plant response rating (0-100) (soybean (Glycine max) [22]; [30]): 0
- Foxtail, Green plant response rating ([23]; 16 g ai/ha, 0 to 100 scale): 0
- Foxtail, Green plant response rating (0-100) [23, 30]: 0
- Ragweed plant response rating ([24]; 16 g ai/ha, 0 to 100 scale): 0
- Ragweed plant response rating (0-100) [24, 30]: 10
- Ryegrass, Italian plant response rating ([25]; 16 g ai/ha, 0 to 100 scale): 0
- Ryegrass, Italian plant response rating (0-100) [25, 30]: 80
- Wheat plant response rating ([26]; 16 g ai/ha, 0 to 100 scale): 0
- Wheat plant response rating (0-100) [26, 30]: 40
- Corn plant response rating (corn (Zea mays) [27]; 16 g ai/ha, 0 to 100 scale): 0
- Corn plant response rating (0-100) (corn (Zea mays) [27]; [30]): 50

From patent US20260285850A1, “SUBSTITUTED OXAZOLIDINONES AND IMIDAZOLINONES AS HERBICIDES” (FMC CORPORATION, priority 2023, published 2026)
